According to the supplement of paper PMC12317010:
Structures can show the parent of a compound that is named as a salt.

Assay: collision cross section in nitrogen (drift tube, single-field); higher = larger gas-phase ion size
[1] = ion type: [M+H], ion source: APCI, ion mode: Positive
[2] = ion type: [M+H], ion source: ESI, ion mode: Positive
[3] = ion type: [M+Na], ion source: ESI, ion mode: Positive
[4] = ion type: [M-H], ion source: ESI, ion mode: Negative
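Note: chemical standards at 10 µM analysed by drift tube IMS-QTOF MS in about 3.95 torr nitrogen, mean of duplicate injections differing ≤1%, mass error below 10 ppm.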

| Structure (SMILES) | collision cross section in nitrogen [1] [Å²] | collision cross section in nitrogen [2] [Å²] | collision cross section in nitrogen [3] [Å²] | collision cross section in nitrogen [4] [Å²] | also measured |
| --- | --- | --- | --- | --- | --- |
| CC=CC(=O)N(CC)c1ccccc1C [Crotamiton] | 145.3 | 145.7 | 157 |  |  |
| CCc1cccc(C)c1N(C(=O)CS(=O)(=O)O)C(C)COC (centres undefined) [Metolachlor ESA] |  |  | 177.4 | 173.9 |  |
| Oc1c(Cl)cc(Cl)c(Cl)c1Cc1c(O)c(Cl)cc(Cl)c1Cl [Hexachlorophene] |  |  |  | 174.4 |  |
| Nc1ccn([C@@H]2O[C@H](CO)[C@@H](O)[C@@H]2O)c(=O)n1 [Cytarabine] |  |  | 156.9 |  |  |
| Cc1[nH]c(=O)n(C(C)(C)C)c(=O)c1Cl [Terbacil] |  |  |  | 144.9 |  |
| CCOC(=O)C(SP(=S)(OC)OC)c1ccccc1 (centres undefined) [Phenthoate] |  |  | 175.1 |  |  |
| Oc1ccccc1-c1ccccc1 [2-Phenylphenol] |  |  |  | 136.4 |  |
| CN1CCc2cccc3c2[C@H]1Cc1ccc(O)c(O)c1-3 [Apomorphine hydrochloride] | 162.3 | 162.5 |  |  |  |
| O=C1CCc2ccccc2O1 [3,4-Dihydrocoumarin] |  |  |  | 127.6 |  |
| C=CC(=O)OCC(CO)(COC(=O)C=C)COC(=O)C=C [Pentaerythritol triacrylate] |  |  | 165.1 |  |  |
| Fc1ccc([C@@]2(Cn3cncn3)O[C@@H]2c2ccccc2Cl)cc1 [Epoxiconazole] | 176.9 | 176.6 | 191.3 |  |  |
| O=c1[nH]cnc2c1ncn2[C@H]1CC[C@@H](CO)O1 [Didanosine] |  |  |  | 153.5 |  |
| CCOP(=O)(OCC)OC(=CCl)c1ccc(Cl)cc1Cl [Chlorfenvinphos] | 168.7 | 170.1 | 181 |  |  |
| O=c1[nH]cc(S(=O)(=O)Cl)c(=O)[nH]1 [2,4-Dioxo-1,2,3,4-tetrahydropyrimidine-5-sulfonyl chloride] |  | 140.8 |  |  |  |
| CCCCNC(=O)NS(=O)(=O)c1ccc(C)cc1 [Tolbutamide] |  |  | 176.6 | 165 |  |
| c1ccc2cc(Nc3ccc(Nc4ccc5ccccc5c4)cc3)ccc2c1 [N,N'-Di-2-naphthyl-p-phenylenediamine] | 201.9 |  |  | 203.8 |  |
| CC(C)(C)c1ccc(OC2CCCCC2O)cc1 (centres undefined) [2-(4-tert-Butylphenoxy)cyclohexanol] |  |  | 179.8 |  |  |
| CC(=O)c1ccc2c(c1)[C@H](NC(=O)c1ccc(F)cc1)[C@@H](O)C(C)(C)O2 [Carabersat] | 184.1 | 183.9 | 194.4 | 186 |  |
| c1cc(N(CC2CO2)CC2CO2)ccc1Cc1ccc(N(CC2CO2)CC2CO2)cc1 (centres undefined) [4,4'-Methylenebis(N,N-diglycidylaniline)] | 215.7 | 215.2 | 199.7 |  |  |
| CCc1cc(C)cc(CC)c1-c1c(OC(=O)C(C)(C)C)n2n(c1=O)CCOCC2 [Pinoxaden] | 196.5 | 196.6 | 202.8 |  |  |
| O=P(O)(O)c1ccccc1 [Phenylphosphonic acid] |  |  |  | 130.1 |  |

| Structure (SMILES) | collision cross section in nitrogen [1] [Å²] | collision cross section in nitrogen [2] [Å²] | collision cross section in nitrogen [3] [Å²] | collision cross section in nitrogen [4] [Å²] | also measured |
| --- | --- | --- | --- | --- | --- |
| CCS(=O)(=O)CCSP(=O)(OC)OC [Demeton-S-methyl sulfone] | 144.5 | 145 | 155.1 |  |  |
| Cc1cc(C)c(C(=O)O)c(C)c1 [2,4,6-Trimethylbenzoic acid] |  |  |  | 140.5 |  |
| C[C@]1(Cn2ccnn2)[C@H](C(=O)O)N2C(=O)C[C@H]2S1(=O)=O [Tazobactam sodium] |  | 161.8 |  | 157.7 |  |
| O=c1[nH]c(=O)n([C@H]2CCCO2)cc1F [(R)-Tegafur] |  |  |  | 142.2 |  |
| COc1ccc(NC(=O)CC(C)=O)cc1 [N-(4-Methoxyphenyl)-3-oxobutanamide] | 146.5 |  | 160.2 | 148.5 |  |
| Nc1ccc(S(=O)(=O)Nc2nccs2)cc1 [Sulfathiazole] | 153.5 | 153.9 | 167.5 | 154.3 |  |
| CC(C)NC(=O)c1ccccc1N [2-Amino-N-(1-methylethyl)benzamide] |  |  |  | 140.8 |  |
| Oc1cccc(C(F)(F)F)c1 [3-(Trifluoromethyl)phenol] |  |  |  | 121.3 |  |
| CCCCCCCCCCCCOC(C)=O [Dodecyl acetate] |  |  |  | 162 |  |
| CCCN(CCC)c1c([N+](=O)[O-])cc(C(C)C)cc1[N+](=O)[O-] [Isopropalin] | 172.4 |  |  | 175.1 |  |
| Cc1c(Cl)c(=O)oc2cc(O)ccc12 [3-Chloro-7-hydroxy-4-methyl-2-benzopyrone] |  | 138.4 |  |  |  |
| CC(=O)Nc1ccc(C)cc1C [N-(2,4-Dimethylphenyl)acetamide] |  | 136.2 |  |  |  |
| CC(=O)c1sc(C)nc1C [1-(2,4-Dimethyl-1,3-thiazol-5-yl)ethanone] | 129.2 |  |  |  |  |
| CC(C)Oc1cc(-n2nc(C(C)(C)C)oc2=O)c(Cl)cc1Cl [Oxadiazon] |  |  |  | 177.1 |  |
| CC1(C)Cc2cccc(N)c2O1 [2,2-Dimethyl-2,3-dihydro-1-benzofuran-7-amine] | 135.8 | 135 |  |  |  |
| CN(CCO)CC(O)Cn1cnc2c1c(=O)n(C)c(=O)n2C (centres undefined) [Xanthinol niacinate] | 171.8 | 171.7 | 175.7 |  |  |
| Nc1ccn([C@@H]2O[C@H](CO)[C@@H](O)[C@@H]2O)c(=O)n1 [Cytarabine hydrochloride] |  |  | 157.1 |  |  |
| NC(N)=Nc1nc(CSCCC(N)=NS(N)(=O)=O)cs1 [Famotidine] | 168.7 | 168.9 | 174.3 | 169.4 |  |
| COP(=O)(OC)O/C(C)=C/C(=O)N(C)C [Dicrotophos] | 150.2 |  | 153.2 |  |  |
| N=C(N)NC(=N)NCCc1ccccc1 | 145.7 | 146.3 | 148.3 |  |  |
| CC(C)(COCC1CO1)COCC1CO1 (centres undefined) [Neopentyl glycol diglycidyl ether] |  |  | 148.2 |  |  |

| Structure (SMILES) | collision cross section in nitrogen [1] [Å²] | collision cross section in nitrogen [2] [Å²] | collision cross section in nitrogen [3] [Å²] | collision cross section in nitrogen [4] [Å²] | also measured |
| --- | --- | --- | --- | --- | --- |
| CCNc1nc(Cl)nc(NC(C)C)n1 [Atrazine] | 149 | 149.5 |  |  |  |
| O=C(O)c1cccc([N+](=O)[O-])c1 [Sodium 3-nitrobenzoate] |  |  |  | 131.2 |  |
| COc1ccccc1NC(=O)c1cc2ccccc2cc1O [3-Hydroxy-2-naphthoic o-anisidide] | 167.3 | 167.5 | 181.8 | 168.9 |  |
| O=[N+]([O-])c1c2ccccc2cc2ccccc12 [9-Nitroanthracene] | 145.5 |  |  | 145.1 |  |
| CCOP(=O)(OCC)SCCSCC [Demeton-S] |  |  | 162.4 |  |  |
| CC(C)(O)c1ccc(CNC(=O)c2cccnc2Oc2ccc3nonc3c2)cc1 | 196.9 |  | 191.5 | 201 |  |
| CC(Cc1ccc(C(C)(C)C)cc1)CN1C[C@@H](C)O[C@@H](C)C1 (stereo partly drawn) [(2R,6S)-Fenpropimorph] | 173.1 | 173.5 |  |  |  |
| CO/N=C(/C1=NOCCO1)c1ccccc1Oc1ncnc(Oc2ccccc2Cl)c1F [Fluoxastrobin] | 204.8 | 204.3 | 208.1 |  |  |
| O=C1C[C@@H]2OCC=C3CN4CC[C@]56c7ccccc7N1[C@H]5[C@H]2[C@H]3C[C@H]46 [Strychnine] | 172 | 175.2 |  |  |  |
| Nc1nc(N)nc(-c2ccccc2)n1 [6-Phenyl-1,3,5-triazine-2,4-diamine] | 140.2 | 140.6 |  |  |  |
| CCCCC/C=C\C/C=C\CCCCCCCC(=O)O [Linoleic acid] |  |  |  | 175.2 |  |
| COc1cccc(-c2ccc(/C=C\CN3CCCCCC3)cc2Cl)c1 | 185.2 | 185.6 | 196.9 |  |  |
| Cc1ccc(N)c(S(=O)(=O)O)c1 [2-Amino-5-methylbenzenesulfonic acid] |  |  |  | 137.9 |  |
| Cc1cc(Cl)ccc1OCC(=O)O [2-(4-Chloro-2-methylphenoxy)acetic acid] |  |  |  | 146.1 |  |
| CCN(CCC#N)c1ccc(N=Nc2ccc([N+](=O)[O-])cc2)cc1 [C.I. Disperse Orange 25] | 188.5 | 188.8 | 189.8 |  |  |
| CCOC(=O)COc1cc(-c2nn(C)c(OC(F)F)c2Cl)c(F)cc1Cl [Pyraflufen-ethyl] |  | 188 | 198.4 |  |  |
| CCCCCCOC(=O)CCC [Hexyl butyrate] |  |  |  | 149.7 |  |
| CN(C)c1ccc(C(=C2C=CC(=[N+](C)C)C=C2)c2ccccc2)cc1 [Malachite green] |  |  |  |  | collision cross section in nitrogen (ion source: APCI, ion mode: Positive, ion type: [M]+ (permanent cation)): 188.5 Å²; collision cross section in nitrogen (ion source: ESI, ion mode: Positive, ion type: [M]+ (permanent cation)): 188.9 Å² |
| CC(C)N1C(=O)c2ccccc2NS1(=O)=O [Bentazone] |  |  |  | 146.9 |  |
